ChEMBL document CHEMBL1201862, “PubChem BioAssay data set” (2004)
Calls of active or inactive are those of the source. Cut-off read from the data, not from the text of the source, for most assays here: actives have a measured EC50 and inactives only a lower limit.

What was measured:
Assay type in all cases: functional
[1] = biological target: T1, Polyadenylate-binding protein 1 (Homo sapiens, UniProt P11940); experiment: PABP1 MLLE–PAM2 interaction inhibitors, dose response, miRNA deadenylation inhibitor project, biochemical, fluorescence polarization, Cy5-PAM2 peptide, secondary (AID 602260); conditions: read-out: IC50_Mean
[2] = biological target: T1, Polyadenylate-binding protein 1; experiment: PABP1 MLLE–PAM2 binding inhibitor potency, dose response, biochemical, fluorescence polarization, FITC-PAM2 peptide (AID 602259); conditions: read-out: IC50_Mean
[3] = Luminescence Cell-Based Dose Response HTS to Identify Activators of Luciferase Translation or Activity in H4 […] Cells. [Related pubchem assays: 1829 (Project Summary), 1814 (Primary HTS)]
H4 = experiment: Luminescence Cell-Based Dose Response HTS to Identify Activators of 5'UTR Stem-Loop Driven Prion Protein mRNA Translation in H4 Neuroglioblastoma Cells. [Related pubchem assays: 1829 (Project Summary), 1814 (Primary HTS)]; conditions: Homo sapiens
[4] = Luminescence Cell-Based Dose Confirmation HTS to Identify Activators of 5'UTR Stem-Loop Driven Alpha-Synuclein mRNA Translation in H4 Neuroglioblastoma Cells. [Related pubchem assays: 1829 (Project Summary), 1814 (Primary HTS)]
[5] = biological target: T2, Corticotropin-releasing factor receptor 2/Corticotropin-releasing factor-binding protein (Homo sapiens, UniProt P24387+Q13324); experiment: activators of CRF receptor 2 with binding protein – uHTS hits, confirmation (AID 602473); conditions: read-out: EC50_Mean
T2 sequence (Q13324 whole entry): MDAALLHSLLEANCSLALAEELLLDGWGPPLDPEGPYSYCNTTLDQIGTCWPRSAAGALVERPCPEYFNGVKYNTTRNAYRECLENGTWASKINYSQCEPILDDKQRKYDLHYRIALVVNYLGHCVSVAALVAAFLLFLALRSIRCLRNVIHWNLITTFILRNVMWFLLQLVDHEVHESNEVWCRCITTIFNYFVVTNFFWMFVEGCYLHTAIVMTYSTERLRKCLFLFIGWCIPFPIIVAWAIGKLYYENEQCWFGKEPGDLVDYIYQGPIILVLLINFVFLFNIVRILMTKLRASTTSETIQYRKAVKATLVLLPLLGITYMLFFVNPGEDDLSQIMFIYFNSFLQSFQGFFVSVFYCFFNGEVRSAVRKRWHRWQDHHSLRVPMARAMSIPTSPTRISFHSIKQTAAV
T2 sequence (P24387 whole entry): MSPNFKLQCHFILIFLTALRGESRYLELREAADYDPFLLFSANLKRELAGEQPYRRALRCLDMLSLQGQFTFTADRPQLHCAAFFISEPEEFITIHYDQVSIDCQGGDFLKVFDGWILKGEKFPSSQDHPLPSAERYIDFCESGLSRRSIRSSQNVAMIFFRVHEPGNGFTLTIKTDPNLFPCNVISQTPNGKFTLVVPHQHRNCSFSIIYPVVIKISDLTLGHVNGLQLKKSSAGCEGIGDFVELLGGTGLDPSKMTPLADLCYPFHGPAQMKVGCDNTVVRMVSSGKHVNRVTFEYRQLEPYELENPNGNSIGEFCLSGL

[6] = biological target: T2, Corticotropin-releasing factor receptor 2/Corticotropin-releasing factor-binding protein; experiment: Dose Response confirmation of uHTS hits for small molecule antagonists of the CRF-binding protein and CRF-R2 receptor complex.; conditions: read-out: IC50_Mean

T1 sequence (P11940 whole entry): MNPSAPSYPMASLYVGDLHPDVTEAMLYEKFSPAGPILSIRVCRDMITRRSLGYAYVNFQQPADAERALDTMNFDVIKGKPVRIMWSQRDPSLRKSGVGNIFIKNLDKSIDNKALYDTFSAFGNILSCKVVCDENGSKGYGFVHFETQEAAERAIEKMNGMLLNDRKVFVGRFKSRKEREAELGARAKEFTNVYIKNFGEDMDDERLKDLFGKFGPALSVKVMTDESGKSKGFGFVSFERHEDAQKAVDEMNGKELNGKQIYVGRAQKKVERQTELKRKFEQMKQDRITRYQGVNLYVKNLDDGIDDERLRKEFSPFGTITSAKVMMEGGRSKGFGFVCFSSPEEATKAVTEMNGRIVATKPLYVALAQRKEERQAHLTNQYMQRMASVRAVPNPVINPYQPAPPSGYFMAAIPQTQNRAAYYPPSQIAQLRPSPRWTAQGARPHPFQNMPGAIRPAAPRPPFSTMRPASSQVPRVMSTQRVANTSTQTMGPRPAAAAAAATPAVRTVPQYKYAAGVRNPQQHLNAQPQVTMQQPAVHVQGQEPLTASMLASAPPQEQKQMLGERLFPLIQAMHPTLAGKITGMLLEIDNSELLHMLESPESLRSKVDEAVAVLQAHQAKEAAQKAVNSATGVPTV

SMILES	IC50 [1]	IC50 [2]	EC50 [4]	EC50 [5]	IC50 [6]	further results
Cc1cc(Cl)ccc1N=C(S)Nc1cccnc1	> 66 µM (inactive)	> 66 µM (inactive)				
O=[N+]([O-])c1ccc(C(O)CSC(=S)N2CCCCC2)cc1 (configuration not stated)			7.46 µM (active)			EC50 [3]: 56.4 µM (active); EC50 (H4): 32.7 µM (active)
CC(C)(C)c1ccc(C(=O)NNC(=O)C2CCCCC2)cc1			19.6 µM (active)			EC50 [3]: 30.7 µM (active); EC50 (H4): 59.3 µM (active)
COc1ccc(NC(=O)NCCCN2CCc3ccccc3C2)cc1				> 53 µM (inactive)	> 47.1 µM (inactive)	
CCc1nc2cccnc2n1-c1ccc(C(=O)O)cc1	> 66 µM (inactive)	49.5 µM (inactive)				
c1ccc(NC2=Nc3ccccc3CS2)cc1			0.465 µM (active)			EC50 [3]: 0.409 µM (active)
COc1ccc(Cl)cc1N=C(S)Nc1ccccc1F	> 66 µM (inactive)	> 66 µM (inactive)				
O=C1c2ccccc2C2C3=C(O)CC(c4ccco4)CC3=Nc3ccccc3N12 (configuration not stated)			> 120 µM (not active)			EC50 [3]: 41 µM (active); EC50 (H4): > 120 µM (not active)
CSc1nc2ncc(-c3ccsc3)c(N)n2n1			> 120 µM (not active)			EC50 [3]: 19.5 µM (active); EC50 (H4): 27.2 µM (active)
O=C(NC1=NCCS1)c1cccs1	> 66 µM (inactive)	> 66 µM (inactive)				
Cc1nn(C)c(C)c1NC(=O)c1cc2nc(-c3ccco3)cc(C(F)(F)F)n2n1				> 53 µM (inactive)	> 47.1 µM (inactive)	
Cn1c2c(c(=O)[nH]c1=O)C(c1ccc(O)cc1)C1=C(O)c3ccccc3C1=N2 (configuration not stated)			> 120 µM (not active)			EC50 [3]: > 120 µM (not active); EC50 (H4): > 120 µM (not active)
COc1ccc(CN2CCN(C(=O)c3cccs3)CC2)c(OC)c1OC				> 53 µM (inactive)	> 47.1 µM (inactive)	
CC1(C)Cc2ccccc2-c2c1c(=O)n(Cc1ccccc1)c1nnnn21				> 53 µM (inactive)	> 47.1 µM (inactive)	
COC(=O)CC(NC(=S)NC(=O)c1ccccc1)c1ccc(Br)cc1 (configuration not stated)	> 66 µM (inactive)	> 66 µM (inactive)				
CN1/C(=C\C(=O)c2cccc([N+](=O)[O-])c2)Sc2ccccc21	> 66 µM (inactive)	> 66 µM (inactive)				
CCc1ccc(NC(=O)Cn2nc(C(=O)O)c3ccccc3c2=O)cc1				> 53 µM (inactive)	> 47.1 µM (inactive)	
Clc1ccc(-c2csc(N3CCOCC3)n2)cc1				> 53 µM (inactive)	> 47.1 µM (inactive)	
CCOc1cccc(-c2csc(C3COc4ccccc4O3)n2)c1 (configuration not stated)			13.4 µM (active)			EC50 (H4): 37.5 µM (active)
CC(c1nc(O)c2ccccc2n1)N(C)c1ccc2ccccc2c1 (configuration not stated)	> 66 µM (inactive)	> 66 µM (inactive)				
Cc1ccc(NC(=O)COC(=O)CN2C(=O)NC3(CCCC3)C2=O)cc1S(=O)(=O)N(C)C				> 53 µM (inactive)	> 47.1 µM (inactive)	
